In one test the target is T1, Cyp4a12 (Mus musculus, UniProt Q91WL5).
T1 construct: Murine full-length Cyp4a10 (cDNA clone MGC:58977) and Cyp4a12 (cDNA clone MGC:25972) cDNA clones were purchased from ATCC; expressed in transfected cells; host or cells: conditionally immortalized non-cystic Balb/C (+/+) mouse renal epithelial cells transduced with the lentiviral vector pHR(+)c.Ub.CYP4A12.R(-)W(+); protein lysates
T1 sequence (Q91WL5 38-508): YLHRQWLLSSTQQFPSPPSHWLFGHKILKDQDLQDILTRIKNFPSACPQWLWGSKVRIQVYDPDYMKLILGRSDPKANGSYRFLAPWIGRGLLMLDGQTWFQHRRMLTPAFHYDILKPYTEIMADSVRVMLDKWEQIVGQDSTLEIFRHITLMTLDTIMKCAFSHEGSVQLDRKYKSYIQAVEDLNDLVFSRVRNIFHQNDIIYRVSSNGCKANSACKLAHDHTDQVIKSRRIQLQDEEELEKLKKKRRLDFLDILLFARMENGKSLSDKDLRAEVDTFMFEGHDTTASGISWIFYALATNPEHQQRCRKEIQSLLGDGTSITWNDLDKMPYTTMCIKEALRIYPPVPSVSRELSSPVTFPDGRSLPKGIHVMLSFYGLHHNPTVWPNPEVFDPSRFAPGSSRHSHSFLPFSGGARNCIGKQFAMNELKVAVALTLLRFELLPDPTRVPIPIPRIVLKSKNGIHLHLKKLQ
Nature of the test: 20-HETE production assay with lysates of Cyp4a12 over-expressing Balb/C cells. Type of test: biochemical, murine. The note with it: 1 μM during the 20-HETE production assay. On the procedure: Microsomes were isolated from the cystic BPK and non-cystic Balb/C mouse kidneys as described by Ito O et al. (Am J Physiol Regul Integr Comp Physiol, 280:R822-30, 2001). For the BPK and Balb/C cells, protein lysates were harvested by homogenization and subsequent sonication of the cell pellets. For the 20-HETE production assay, the isolated protein (500 μg) was incubated in 0.5 mL of 100 mM potassium phosphate buffer containing 40 μM cold arachidonic acid and 2 mM NADPH. In some samples, the 20-HETE synthesis inhibitor, HET-0016, was added at a concentration of 1 μM. The reaction was incubated at 37° C. and equilibrated with 100% O2 for 30 minutes. The reaction was stopped by acidification to pH 3.5 with 1M formic acid. The lipids were extracted in the presence of 20-HETE-d6 (2 ng) using 3:1 ethyl acetate:water and dried down under nitrogen. The samples were reconstituted in 1:1 methanol:water and the production of 20-HETE was measured using a liquid chromatograph-triple quadrupole mass spectrometer (ABI 3000, Applied Biosystems, Inc., Foster City, Calif.) as described in Williams J M et al. Hypertension, 49:687-94, 2007.
The functional activity of the cytochrome P450 4A isoforms was determined using liquid chromatography coupled to mass spectrometry in the 20-HETE production assay (FIG. 7B). […]

Test [1] relates to cystic BPK renal epithelial cells. Nature of the test: Cell counting of cystic BPK renal epithelial cells. Type of test: cell-based, mouse. The note with it: 10 μM added daily, day 2, non-permissive conditions. Here is the method: (§1) For the cell counting experiments, the non-cystic Balb/C (+/+) and cystic BPK renal epithelial cells were seeded in 6-well dishes and changed into media lacking γ-IFN at 37° C. (non-permissive conditions) for at least 6 additional days prior to assessing any phenotypic analyses to ensure the loss of the T antigen (Sweeney W E et al. Am J Physiol Cell Physiol, 281:C1695-705, 2001). Cells were harvested by tryptic digestion and counted by light microscopy using a hemocytometer.
(§2) The cells in this experiment were transduced using the lentiviral vectors in the presence of γ-IFN (i.e., permissive state) and allowed to expand. Once the cells were expanded, the transduced cells were grown in the absence of γ-IFN (i.e., non-permissive state) for 10 days. The cells were harvested and counted to initiate the proliferation experiment.

Test [2] deals with Cyp4a12-expressing Balb/C cells. Nature of the test: Cell counting of Cyp4a12-transduced non-cystic Balb/C cells. The format is cell-based, mouse. The conditions noted are these: 10 μM. On the procedure: as §1, §2
There was no significant difference (P>0.05) between Balb/C cells treated with vehicle or the EGFP-transduced lentiviral vectors.

Test [3] concerns EGFR phosphorylation in BPK renal tissues. Nature of the test: Western blot of EGFR phosphorylation in BPK renal tissue after chronic treatment. The format is in vivo, mouse. The conditions noted are these: BPK mice, ip 10 mg/Kg/day, PN-7 to PN-20, medulla region. The text has this:
The BPK model, a murine model of ARPKD, arose as a spontaneous mutation in an inbred colony of Balb/c mice and has been extensively characterized (Nauta J et al. Pediatr Nephrol 1993, 7:163-72; Nauta J et al. Pediatr Res 1995, 37:755-63; and Sweeney W E et al. Kidney Int 2003, 64:1310-9). Affected animals die at postnatal day (PN) 24 (average) with a range of PN-21 to PN-29 days. Extrarenal manifestations include biliary proliferation and ductal ectasia (BDE). Balb/c controls were utilized in all experiments. All animal experiments were conducted in accordance with policies of the NIH Guide for the Care and Use of Laboratory Animals and the Institutional Animal Care and Use Committee (IACUC) of the Medical College of Wisconsin. Western blot analysis of EGFR phosphorylation was conducted for BPK renal tissues following 13 days (PN-7 to PN-20) of treatment with vehicle (ip) (lane A of FIG. 10) or HET0016 (ip, 10 mg/Kg/day) (lane B or FIG. 10). […] The reduced phosphorylation of the EGFR directly correlates with the reduced size of the HET0016-treated cystic kidney, reduced KW/BW ratio, and improved morphology of the HET0016-treated cystic kidney observed in the immunohistochemistry study described above in Example 3.
In general terms: A western blot detects proteins with antibodies after separation by electrophoresis.

The next test relates to 20-HETE. The note with it: cited from earlier work.

Some results are limits rather than exact numbers.

For “N-hydroxy-N-(4-butyl-2-methylphenyl)-formamidine [HET0016]”, on Cyp4a12, the “inhibition of 20-HETE synthesis by over-expressed Cyp4a12” value is on record as more than 70%. For the same substance, the “number of cystic BPK cells” value in test [1] is on record as 40,744±4,322. In test [2], the “increased cell proliferation of Balb/C cells over-expressing Cyp4a12” value is “completely abolished the increased cell proliferation”. Further, in test [2] (day 3, without inhibitor 285,792±21,892), the “number of Cyp4a12-expressing Balb/C cells” value is given as 49,700±5,085. Moreover, the “phosphorylation (activation) of EGFR in renal tissue” value in test [3] was “reduced the phosphorylation (activation) of EGFR”. Besides, the “20-HETE levels in vivo” value with 20-HETE is reported as “reduce 20-HETE levels in vivo”.
